According to patent US7569573B2, “Diketo acids with nucleobase scaffolds: anti-HIV replication inhibitors targeted at HIV integrase” (The University of Georgia Research Foundation, Inc., priority 2005, dated 2009):
Like-named read-outs stand apart in the source and are kept apart here.

Legend:
[1] = literature values, same sources as the IC50; cited from earlier work
HIV = test: In vitro anti-HIV activity, PBMC cell-based assay, side by side with AZT; conditions: Human immunodeficiency virus 1
[2] = Cytotoxicity (CC50) in the PBMC cell-based anti-HIV assay

Row | Compound | CC50 [1] | IC50 (HIV) | CC50 [2]
1 | O=C(O)C(=O)CC(=O)c1cc(OCc2ccccc2)cc(OCc2ccccc2)c1 [Example L-708906] | 88.3 µM |  | 
2 | O=C(/C=C(\O)c1nc[nH]n1)c1ccc(Cc2ccc(F)cc2)o1 [Example S-1360] | 110 µM |  | 
3 | O=C(O)/C(O)=C/C(=O)c1cn(Cc2ccccc2)c(=O)n(Cc2ccccc2)c1=O |  | 0.02 µM | > 200 µM
